Assay results taken from US20100022637A1, “IDENTIFICATION OF ANTI-CANCER COMPOUNDS AND COMPOUNDS FOR TREATING HUNTINGTON'S DISEASE AND METHODS OF TREATMENT THEREOF” (THE TRUSTEES OF COLUMBIA UNIVERSITY IN THE CITY OF NEW YORK, priority 2005, published 2010).
≈ marks a conversion by molar mass, not a printed value.

Experiments:
[1] = test system: N548 mutant cells; assay: cells; conditions: for Activity: scale not defined; for selectivity profile of cell death rescue in panel of htt expressing cell lines: N63, N548, FL htt cell lines
[2] = in vitro; conditions: rat
[3] = test system: HeLa, TC32, A673, BJELR cells; assay: Alamar Blue viability assay, other cancer cell lines; type: cell-based; conditions: TC32 (A673 for T55D7)
Experimental: (§1) Each cell line (RKO, RKO-E6, HeLa and TC32) was treated with a dose combination matrix of doxorubicin and a selected hit compound. Each treatment was done in a triplicate in 384-well format. The average percent inhibition of cell proliferation, measured with Alamar Blue, was determined using the following formula: […]

[4] = test system: RKO cells; assay: Alamar Blue viability assay, RKO; type: cell-based, human; conditions: in words
Experimental: (§2) RKO colon carcinoma, human (ATCC, order # CRL-2577), RKO-E6 colon carcinoma transfected with HPV E6 inserted in pCMV.3 (ATCC, order # CRL-2578) were grown in MEM with 2 mM L-glutamine and Earle's BBS adjusted to contain 1.5 g/L NaHCO3, 0.1 mM non-essential amino acids and 1.0 mM sodium pyruvate, and supplemented with 10% fetal bovine serum, penicillin and streptomycin (pen/strep). Both cell lines were incubated at 37° C. in a humidified incubator containing 5% CO2.
The Alamar Blue assay incorporates a fluorimetric/colorimetric growth indicator that changes color in the response to chemical reduction by viable cells (Nociari 1998). Cells were seeded at a density of 3,000 cells (57 μl) per well in a 384-well black, clear-bottom plates using a syringe bulk dispenser (Zymark Sciclone ALH). […] Fluorescence intensity was determined using a Packard Fusion platereader with a 535 nm excitation filter and a 590 nm emission filter. The average fluorescence for the whole plate was used as a positive control. Average percentage inhibition for each well was determined using our freely available SLIMS software (Kelley et al., 2004). […]
Each cell line (RKO, RKO-E6, HeLa and TC32) was treated with a dose combination matrix of doxorubicin and a selected hit compound. […] The average percent inhibition of cell proliferation, measured with Alamar Blue, was determined using the following formula: […]

[5] = test system: RKO cells; assay: Flow cytometry cell cycle distribution, RKO; type: cell-based, human; conditions: 24 h, propidium iodide
Experimental: (§3) RKO, RKO-E6 or HeLa cells were seeded in 20-cm dishes in 10 ml of growth medium. Cells were allowed to adhere and then treated with the selected compounds for 24 h. The treated cells were collected, washed 2× with PBS and counted. The cell pellet was re-suspended in 500 μl of ice cold PBS and 2-5 ml of cold 70% ethanol (−20° C.) were added. Cells were fixed for 1 h or overnight. 5-10 million cells were placed into a 15-ml conical tube and centrifuged at 1000 g. Cells were washed 2× with 1% calf serum in PBS. Cells were resuspended in 800 μl of 1% calf serum in PBS and 100 μl of Rnase (1 mg/ml) and 100 μl of propidium iodide (400 μg/ml) added. Cells were incubated at 37° C. for 30 min and then analyzed on flow cytometer.

[6] = test system: RKO-E6 cells; assay: Alamar Blue viability assay, RKO-E6; type: cell-based, human; conditions: for effect on doxorubicin's lethality in RKO-E6 cells: co-treatment with 0.5 μg/ml doxorubicin, 24 h
Experimental: as §2
The Alamar Blue assay incorporates a fluorimetric/colorimetric growth indicator that changes color in the response to chemical reduction by viable cells (Nociari 1998). Cells were seeded at a density of 3,000 cells (57 μl) per well in a 384-well black, clear-bottom plates using a syringe bulk dispenser (Zymark Sciclone ALH). Three microliters were removed from a compound daughter plate using a 384 fixed cannula head and added to the assay plate, making the final concentration 4 μg/ml. The plates were incubated for 24 h at 37° C. 10 μl of 40% Alamar Blue (Biosource Int., cat #DAL1100) solution in media was added to each well (1:10 dilution). The assay plates were incubated for 16h. Fluorescence intensity was determined using a Packard Fusion platereader with a 535 nm excitation filter and a 590 nm emission filter. The average fluorescence for the whole plate was used as a positive control. Average percentage inhibition for each well was determined using our freely available SLIMS software (Kelley et al., 2004).
The daughter plates for the 2-fold dilution series were prepared with a Zymark Sciclone ALH by diluting the replica daughter plates to obtain compound concentrations from 8 μg/ml-0.008 μg/ml (columns 8-18). Columns 1-7 were used as untreated control. RKO-E6 cells were seeded at the density of 3,000 per well in 55 μl, and 5 μl were added from the daughter plate. RKO cells were seeded at the density of 2,000 per well in 55 μl, and 5 μl were added from the daughter plate. The assay was incubated for 24 h at 37° C. 10% Alamar Blue was added to each well and the assay was incubated for 16 h (see above). Compounds for retesting were purchased from the manufacturers or from Sigma-Aldrich (see above). Stocks were prepared in DMSO at 4 mg/ml.
as §1

[7] = test system: p53; assay: Western blot of p53 (p21, MDM2) levels; type: cell-based, human; conditions: RKO-E6 cells; in words
Experimental: Protein content was quantified using a BioRad protein assay reagent (BioRad, cat #500-0006). Equal amounts of protein were resolved on SDS-polyacrylamide gels. Proteins were transferred onto a PVDF membrane, blocked with 5% milk, and incubated with the appropriate primary and secondary antibodies. […] To test for equivalent loading in each lane, blots were stripped, blocked and probed with an anti-eIF-4E antibody.

[8] = test system: RKO-E6 cells; assay: Flow cytometry cell cycle distribution, RKO-E6; type: cell-based, human; conditions: 24 h, propidium iodide
Experimental: as §3

[9] = test system: PC12 expressing Q103 exon 1 htt; assay: PC12 HD model, Alamar Blue viability; type: cell-based
Experimental: For enhanced stability the repeat portion consists of alternating CAG/CAA repeats. […] Mutant (mut) htt was induced by the ecdysone receptor agonist, tebufenozide.
For the PC12 assay, 7500 cells/well were plated in 384-well plates in 57 μl of PC12 medium with tebufenozide (1 μM). Compounds (3 μl) from daughter plates were added to the cells and incubated at 37° C. After 48 h, 20 μl of 40% Alamar Blue (Biosource, CA) in PC12 media was added per well and cells incubated for 12 h at 37° C. […] Fluorescence intensity was determined using a Packard Fusion plate reader with an excitation filter centered on 535 nm and an emission filter centered on 590 nm. Average percentage inhibition at each concentration was calculated.

[10] = test system: parental ST14A cells; assay: Cell death rescue in parental cells (selectivity counter screen); type: cell-based, rat; conditions: in words
Experimental: Cell death is indicated by a decrease in fluorescence. […] (with 5% CO2).
Identification of selective inhibitors of mutant-htt toxicity: As a first step towards probing mechanisms of action of these compounds, it was tested whether compounds selectively targeted pathways that are perturbed by mutant htt or if they suppressed a general death mechanism. Caspase activation was tested to see if it contributed to cell death in this model, since caspase-dependent pathways have been broadly implicated in cell death and in HD (Thornberry, N. and Y. Lazebnik, Science 1998, 281:1312-6; Sanchez Mejia, R and R. Friedlander Neuroscientist 2001, 7: 480-9; Hickey M. and M. Chesselet, Prog Neuropsychopharmacol Biol Psych 2003, 27: 255-65). Caspase activation was monitored via measuring the cleavage of specific fluorogenic caspase substrates. […] The decreased caspase activation in WT N548 cells was consistent with relative protection of these cells from cell death. […] Thus, the ability of a compound to rescue cell death in ST14A cells could be used as a selectivity filter to differentiate compounds that were selective for pathways selective for mutant htt induced cell death. The selectivity of rescue by a compound was determined by assessing rescue of cell death in parental ST14A cells. […]

[11] = test system: caspases; assay: Caspase assay (fluorogenic AFC substrates); type: cell-based, rat; conditions: 50 μM; ST14A and N548 mutant cells, serum deprivation 39° C.
Experimental: Caspase activity was measured using a fluorogenic assay (Biovision Inc. CA), based on cleavage of AFC (7-amino-4-trifluoromethyl coumarin) from specific AFC-conjugated peptide substrates by activated caspases. Each cell line was seeded at 10^6 cells/plate, incubated overnight at 33° C., and then incubated for 6 h at 39° C. in 0.5% IFS containing medium with or without BOC-D-fmk (50 μM). Four plates/sample were harvested in lysis buffer provided by the manufacturer. Peptide substrates were added to the cell lysate or to lysis buffer (control), incubated at 37° C. for 2 h, and fluorescence (ex 355/em 510 nm) measured on a plate reader (Perkin Elmer Victor^3). Fluorescence intensities of controls were subtracted from sample intensity and the resulting value normalized to protein in each sample (Bradford Assay from BioRad; Hercules, Calif.).

[12] = test system: topoisomerase IIα; assay: Western blot of topoisomerase IIα level; type: cell-based, human; conditions: RKO and/or RKO-E6 cells; in words
Excerpt: Antibodies were obtained form the following suppliers: p53 (Oncogene/Calbiochem, cat #OP43), p21 (Santa Cruz Biotechnology inc., cat #sc-817), MDM2 (Santa Cruz Biotechnology Inc., cat #sc-965), Topoisomerase IIα (TopoGEN, cat #2011-1), Topoisomerase I (BD PharMingen, cat #556597), Cyclin B (BD Transduction Laboratories, cat #610219), Cyclin A (BD Transduction Laboratories, cat #611268), Anti-Fluorescein-HRP (Molecular Probes, cat #A21253), Anti-biotin-HRP (Cell Signaling Technology, cat #7075, Jackson ImmunoResearch Laboratories, cat #200-032-096), eIF4E (Santa Cruz Biotechnology Inc., cat #sc-9976 HRP).
Cells were lysed in denaturing lysis buffer (50 mM HEPES KOH [pH 7.4], 40 mM NaCl, 2 mM EDTA, 1.5 mM Na3VO4, 50 mM NaF, 10 mM sodium pyrophosphate, 10 mM sodium β-glycerophosphate, 0.5% Triton X-100, and protease inhibitor tablet [Roche, cat #11777700]). Protein content was quantified using a BioRad protein assay reagent (BioRad, cat #500-0006). Equal amounts of protein were resolved on SDS-polyacrylamide gels. Proteins were transferred onto a PVDF membrane, blocked with 5% milk, and incubated with the appropriate primary and secondary antibodies. […]

[13] = test system: N2 worms; conditions: 6 mM; cited from earlier work

In the case of CC[n+]1c(-c2ccccc2)c2cc(N)ccc2c2ccc(N)cc21 [Homidium Bromide, reference compound], the EC50 ([1]; Rattus norvegicus, ST14A, 72 h) is reported as 10 µM, the Activity ([1]; nonselective hits) is reported as 1.5 and the CC50 [2] is reported as 15 µM.

With S=C1N(CN2CCOCC2)CCN1CN1CCOCC1 [Compound T55D7, 1,3-bis(4-morpholinylmethyl)-2-imidazolidinethione] the “effect on doxorubicin's potency in other cell lines” value [3] was “upregulated doxorubicin's potency in other cell lines”, the “effect on doxorubicin's lethality in RKO cells” value [4] was “increase both doxorubicin's and camptothecin's lethality” and the “cell cycle effect in RKO cells” value [5] was “virtually no changes in the cell cycle”. For the same compound, the “concentrations with doxorubicin-independent lethality” value ([6]; absence of doxorubicin) was 30 to 100 µM, the “effect on doxorubicin's lethality in RKO-E6 cells” value ([6]; in words) was “increase both doxorubicin's and camptothecin's lethality” and the “effect on camptothecin's lethality” value ([6]; co-treatment with camptothecin, in words) was “increase both doxorubicin's and camptothecin's lethality”. The “effect on podophyllotoxin's lethality” value ([6]; co-treatment with podophyllotoxin, in words) was “did not increase the microtubule inhibitor podophylotoxin's lethality”, the “Bliss Independence analysis of combination with doxorubicin” value ([6]; combination dose matrix) was “exceeded Bliss Independence with doxorubicin at multiple doses” and the “p53, p21, MDM2 levels” value [7] was “did not change p53 concentration”. For the same compound, the “cell cycle effect in RKO-E6 cells” value [8] was “pronounced S-phase arrest”.

With CCCCCCCCCC(=O)Oc1cc(-c2ccccc2)nn1-c1cccc(F)c1 [revertin-1c] the EC50 ([9]; Rattus norvegicus, PC-12, unit inferred) was 40 µg/mL (≈ 97.9 µM), the “PC12 rescue: percent increase in viability in compound treated cells above DMSO treated” value ([9]; — = no activity in the assay (footnote n.a.)) was 23% and the “selectivity profile of cell death rescue in panel of htt expressing cell lines” value ([1]; in words) was “selectively rescued cell death in all mutant htt-expressing cell lines”. The “selectivity profile of cell death rescue in panel of htt expressing cell lines” value ([1]; in words, listed as Rev-1c) was “selectively rescues cell death in three mutant htt expressing cell lines”, the maximal fold induction ([1]; Rattus norvegicus, 72 h, read-out: N548 Mut: Max, maximum rescue expressed as fold over DMSO treated N548 mutant cells) was 2.5 and the EC50 ([1]; Rattus norvegicus, read-out: EC50 based on activity in N548 mutant cells) was 4 µg/mL. The “rescue of cell death in parental ST14A cells” value [10] was “not in parental ST14A cells”.

For COC(=O)CC(NC(=O)OC(C)(C)C)C(=O)CF [BOC-D-fmk, reference compound], the caspase activation [11] was “prevented caspase activation”, the “rescue of cell death in mutant N548 cells” value ([1]; in words) was “rescued cell death” and the EC50 ([1]; nonselective hits (rescue also parental ST14A), 0.5% IFS, 39° C., 3 d) was 25 µM. The TC50 ([1]; nonselective hits, maximum concentration tested 80 μM) was “ND(80)”, the Activity ([1]; nonselective hits) was 3 and the “rescue of cell death in parental ST14A cells” value [10] was “rescued cell death”.

With C[C@@H]1C[C@@H]([C@H](O)CC2CC(=O)NC(=O)C2)C(=O)[C@@H](C)C1 [cycloheximide] the “topoisomerase IIα levels” value [12] was “caused increased topoisomerase IIα levels”, the “effect on doxorubicin's lethality in RKO-E6 cells” value ([6]; in words) was “potentiated doxorubicin's lethality” and the “p53, p21, MDM2 levels” value [7] was “caused a disappearance of p53 and p21”.

For O=C(O)c1ccccc1Nc1cccc(C(F)(F)F)c1 [Flufenamic Acid, reference compound], the EC50 ([1]; Rattus norvegicus, ST14A, 72 h) was 5 µM, the Activity ([1]; nonselective hits) was 1.5 and the CC50 at 3 days ([2]; ST14A striatal cells expressing N548 mutant human htt) was 40 µM.

In the case of C[n+]1ccc(-c2cc[n+](C)cc2)cc1 [Paraquat], the toxicity in worms [13] is given as “toxic”.
